Source: patent US4873225A, “1-n-(4-amino-3-fluoro-2-hydroxybutyryl)-kanamycins” (Zaidan Hojin Biseibutsu Kagaku Kenkyu Kai, priority 1987, dated 1989)
Values after ≈ are worked out from the molar mass of the structure shown. Like-named read-outs stand apart in the source and are kept apart here.

How the values were obtained:
Assay in all cases: MIC, standard serial dilution method
Assay type in all cases: cell-based
[1] = system: Pseudomonas aeruginosa TI 13; conditions: for MIC: Pseudomonas aeruginosa; for antibacterial activity (MIC) at pH 6 as compared to pH 7: pH 6 vs pH 7
Description: (§1) Antibacterial activities of each of the abovementioned compounds of the general formula (I) according to this invention were determined by measuring their minimum growth inhibitory concentrations (MIC, mcg/ml) against various bacteria in accordance with a standard serial dilution method. The pH condition of the incubation medium where the MIC data were measured was set at pH 7, unless otherwise specifically indicated. For the sake of comparison, the antibacterial spectra of 1-N-{(S)-4-amino-2-hydroxybutyryl}kanamycin A (i.e., amikacin) and 1-N-{(S)-4-amino-2-hydroxybutyryl}-3,4-dideoxykanamycin B (i.e., habekacin) were also measured in the same manner.
(§2) (a) The antibacterial activities of the compounds of this invention are not decreased practically even under pH conditions of pH […] as compared to their antibacterial activities under neutral conditions of pH 7.

[2] = system: Escherichia coli JR66/W677; conditions: for MIC: Escherichia coli; for antibacterial activity (MIC) at pH 6 as compared to pH 7: pH 6 vs pH 7
Description: as §1, §2

Escherichia coli K-12 R5 = conditions: K12R5, pH 7
Description: as §1
Infectious diseases by Escherichia coli K-12 R5 tend to increase in recent days. The compounds of this invention are therefore important for the therapeutic treatment of bacterial infections.

[3] = system: Escherichia coli K-12 ML 1629
Description: as §1

[4] = system: Pseudomonas aeruginosa GN 315; conditions: GN315, pH 7
Description: as §1

[5] = system: Pseudomonas aeruginosa A3
Description: as §1

[6] = system: Staphylococcus aureus 209P
Description: as §1

[7] = system: Corynebacterium bovis 1810; conditions: Corynebacterium bovis, 1810, pH 7
Description: as §1

Escherichia coli JR 225 = conditions: JR225, pH 7
Description: as §1

Serratia marcescens = system: Serratia marcescens
Description: as §1

Providencia sp. Pv 16 = system: Providencia sp. Pv 16
Description: as §1

[8] = system: Staphylococcus aureus Ap01
Description: as §1

Mycobacterium 607 = conditions: Mycobacterium, 607, pH 7
Description: as §1

[9] = system: Escherichia coli K-12 LA 290 R55; conditions: K12LA290R55, pH 7
Description: as §1

[10] = system: Klebsiella pneumoniae 22 #3038
Description: as §1

Bacillus subtilis PCI219 = system: Bacillus subtilis PCI219
Description: as §1

Proteus rettgeri GN 311 = conditions: Providencia rettgeri, GN311, pH 7
Description: as §1

Escherichia coli K-12 = conditions: K12, pH 7
Description: as §1

[11] = TI13, measured at pH 6, read-out: MIC
[12] = JR66/W677, measured at pH 6, read-out: MIC

Structure (SMILES)	MIC [1, 11] [µg/mL]	antibacterial activity (MIC) at pH 6 as compared to pH 7 [1]	MIC [2, 12] [µg/mL]	antibacterial activity (MIC) at pH 6 as compared to pH 7 [2]	MIC (Escherichia coli K-12 R5) [µg/mL]	MIC [4] [µg/mL]	MIC (Escherichia coli JR 225) [µg/mL]	MIC (Serratia marcescens; pH 7, read-out: MIC) [µg/mL]	MIC [9] [µg/mL]	MIC (Escherichia coli K-12) [µg/mL]	MIC ([1]; TI13, pH 7, read-out: MIC) [µg/mL]	MIC ([2]; JR66/W677, pH 7, read-out: MIC) [µg/mL]	MIC ([3]; K12ML1629, pH 7, read-out: MIC) [µg/mL]	MIC ([5]; A3, pH 7, read-out: MIC) [µg/mL]	MIC ([6]; pH 7, read-out: MIC) [µg/mL]	MIC ([7]; read-out: MIC) [µg/mL]	MIC ([8]; AP01, pH 7, read-out: MIC) [µg/mL]	MIC (Mycobacterium 607; read-out: MIC) [µg/mL]	MIC (Bacillus subtilis PCI219; PCI219, pH 7, read-out: MIC) [µg/mL]	MIC (Proteus rettgeri GN 311; read-out: MIC) [µg/mL]	further results
NCC[C@H](O)C(=O)N[C@@H]1C[C@H](N)[C@@H](O[C@H]2O[C@H](CN)[C@@H](O)[C@H](O)[C@H]2O)[C@H](O)[C@H]1O[C@H]1O[C@H](CO)[C@@H](O)[C@H](N)[C@H]1O [Amikacin, 1-N-{(S)-4-amino-2-hydroxybutyryl}kanamycin A, reference compound]	12.5 (≈ 21.3 µM)	reduced considerably at pH 6	25 (≈ 42.7 µM)	reduced considerably at pH 6	25 (≈ 42.7 µM)	25 (≈ 42.7 µM)	0.78 (≈ 1.33 µM)	6.25 (≈ 10.7 µM)	1.56 (≈ 2.66 µM)	0.78 (≈ 1.33 µM)	–	–	–	–	–	–	–	–	–	–	MIC ([1]; TI13, pH 7): 3.12 µg/mL (≈ 5.33 µM); MIC ([2]; JR66/W677, pH 7): 3.12 µg/mL (≈ 5.33 µM); MIC ([3]; K12ML1629, pH 7): 1.56 µg/mL (≈ 2.66 µM); MIC ([5]; A3, pH 7): 1.56 µg/mL (≈ 2.66 µM); MIC ([6]; pH 7): 1.56 µg/mL (≈ 2.66 µM); MIC [7]: 1.56 µg/mL (≈ 2.66 µM); MIC (Providencia sp. Pv 16; SP.PV16, pH 7): 1.56 µg/mL (≈ 2.66 µM); MIC ([8]; AP01, pH 7): 3.12 µg/mL (≈ 5.33 µM); MIC (Mycobacterium 607): 1.56 µg/mL (≈ 2.66 µM); MIC ([10]; pH 7): 3.12 µg/mL (≈ 5.33 µM); MIC (Bacillus subtilis PCI219; PCI219, pH 7): 1.56 µg/mL (≈ 2.66 µM); MIC (Proteus rettgeri GN 311): 1.56 µg/mL (≈ 2.66 µM)
NCC[C@H](O)C(=O)N[C@@H]1C[C@H](N)[C@@H](O[C@H]2O[C@H](CN)CC[C@H]2N)[C@H](O)[C@H]1O[C@H]1O[C@H](CO)[C@@H](O)[C@H](N)[C@H]1O [Habekacin, 1-N-{(S)-4-amino-2-hydroxybutyryl}-3,4-dideoxykanamycin B, reference compound]	25 (≈ 45.2 µM)	reduced considerably at pH 6	–	reduced considerably at pH 6	25 (≈ 45.2 µM)	3.12 (≈ 5.65 µM)	0.78 (≈ 1.41 µM)	–	0.78 (≈ 1.41 µM)	0.39 (≈ 0.706 µM)	0.78 (≈ 1.41 µM)	0.78 (≈ 1.41 µM)	0.78 (≈ 1.41 µM)	< 0.2	< 0.2	0.39 (≈ 0.706 µM)	0.39 (≈ 0.706 µM)	0.39 (≈ 0.706 µM)	< 0.2	0.78 (≈ 1.41 µM)	MIC ([2]; JR66/W677, pH 6): 6.25 µg/mL (≈ 11.3 µM); MIC (Serratia marcescens; pH 7): 12.5 µg/mL (≈ 22.6 µM); MIC (Providencia sp. Pv 16; SP.PV16, pH 7): 1.56 µg/mL (≈ 2.82 µM); MIC ([10]; pH 7): 1.56 µg/mL (≈ 2.82 µM)
NC[C@@H](F)[C@H](O)C(=O)N[C@@H]1C[C@H](N)[C@@H](O[C@H]2O[C@H](CN)[C@@H](O)[C@H](O)[C@H]2O)[C@H](O)[C@H]1O[C@H]1O[C@H](CO)[C@@H](O)[C@H](N)[C@H]1O [Invention Compound No. 1, 1-N-{(2R,3R)-4-Amino-3-fluoro-2-hydroxybutyryl}-kanamycin A]	3.12 (≈ 5.17 µM)	–	6.25 (≈ 10.4 µM)	–	12.5 (≈ 20.7 µM)	25 (≈ 41.4 µM)	0.78 (≈ 1.29 µM)	3.12 (≈ 5.17 µM)	1.56 (≈ 2.58 µM)	0.39 (≈ 0.646 µM)	3.12 (≈ 5.17 µM)	1.56 (≈ 2.58 µM)	1.56 (≈ 2.58 µM)	0.78 (≈ 1.29 µM)	1.56 (≈ 2.58 µM)	0.78 (≈ 1.29 µM)	6.25 (≈ 10.4 µM)	1.56 (≈ 2.58 µM)	0.78 (≈ 1.29 µM)	0.39 (≈ 0.646 µM)	MIC (Providencia sp. Pv 16; SP.PV16, pH 7, read-out: MIC): 1.56 µg/mL (≈ 2.58 µM); MIC ([10]; pH 7, read-out: MIC): 3.12 µg/mL (≈ 5.17 µM)
NC[C@@H](F)[C@H](O)C(=O)N[C@@H]1C[C@H](N)[C@@H](O[C@H]2O[C@H](CN)[C@@H](O)C[C@H]2F)[C@H](O)[C@H]1O[C@H]1O[C@H](CO)[C@@H](O)[C@H](N)[C@H]1O [Invention Compound No. 3, 1-N-{(2R,3R)-4-Amino-3-fluoro-2-hydroxybutyryl}-2',3'-dideoxy-2'-fluorokanamycin A]	3.12 (≈ 5.29 µM)	–	1.56 (≈ 2.65 µM)	–	6.25 (≈ 10.6 µM)	12.5 (≈ 21.2 µM)	0.39 (≈ 0.661 µM)	1.56 (≈ 2.65 µM)	0.78 (≈ 1.32 µM)	0.2 (≈ 0.339 µM)	3.12 (≈ 5.29 µM)	0.78 (≈ 1.32 µM)	0.39 (≈ 0.661 µM)	0.78 (≈ 1.32 µM)	0.78 (≈ 1.32 µM)	0.78 (≈ 1.32 µM)	1.56 (≈ 2.65 µM)	0.78 (≈ 1.32 µM)	0.39 (≈ 0.661 µM)	0.78 (≈ 1.32 µM)	MIC (Providencia sp. Pv 16; SP.PV16, pH 7, read-out: MIC): 0.78 µg/mL (≈ 1.32 µM); MIC ([10]; pH 7, read-out: MIC): 0.78 µg/mL (≈ 1.32 µM)
